Measurements reported in the NIST ThermoML archive (doi:10.1021/acs.jced.5b00385).

Settings: Liquid, Vibrating tube method

FCC(F)(F)F [1,1,1,2-tetrafluoroethane]
Settings | mass density [kg/m3]
283.46 K, 1000 kPa | 1262.57
283.46 K, 5000 kPa | 1279.58
283.47 K, 10000 kPa | 1298.12
283.47 K, 20000 kPa | 1329.18
283.47 K, 40000 kPa | 1377.11
283.47 K, 60000 kPa | 1414.44
283.47 K, 80000 kPa | 1445.46
303.37 K, 10000 kPa | 1236.85
303.37 K, 20000 kPa | 1275.77
303.38 K, 1000 kPa | 1188.07
303.38 K, 5000 kPa | 1212.13
303.38 K, 40000 kPa | 1332.36
303.38 K, 60000 kPa | 1374.64
303.38 K, 80000 kPa | 1408.98
323.15 K, 3000 kPa | 1119.19
323.16 K, 5000 kPa | 1136.38
323.16 K, 10000 kPa | 1170.84
323.16 K, 20000 kPa | 1220.65
323.16 K, 40000 kPa | 1287.71
323.16 K, 60000 kPa | 1335.49
323.16 K, 80000 kPa | 1373.39
342.97 K, 3000 kPa | 1014.76
342.97 K, 5000 kPa | 1045.25
342.98 K, 10000 kPa | 1097.42
342.98 K, 20000 kPa | 1162.91
342.98 K, 40000 kPa | 1242.75
342.98 K, 80000 kPa | 1338.34
342.99 K, 60000 kPa | 1296.65
362.68 K, 5000 kPa | 922.4
362.68 K, 10000 kPa | 1013.83
362.68 K, 20000 kPa | 1102.6
362.68 K, 40000 kPa | 1197.86
362.68 K, 60000 kPa | 1258.47
362.68 K, 80000 kPa | 1304.15

CCCCC(CC)COC(C)=O (stereo not drawn) [2-ethylhexyl acetate]
Settings | mass density [kg/m3]
283.45 K, 80000 kPa | 925.84
283.45 K, 90000 kPa | 930.33
283.45 K, 100000 kPa | 934.63
283.46 K, 100 kPa | 880.38
283.46 K, 1000 kPa | 881.05
283.46 K, 40000 kPa | 905.65
283.46 K, 50000 kPa | 911.06
283.46 K, 60000 kPa | 916.18
283.46 K, 70000 kPa | 921.22
283.47 K, 3000 kPa | 882.48
283.47 K, 5000 kPa | 883.9
283.47 K, 30000 kPa | 899.95
283.48 K, 10000 kPa | 887.37
283.48 K, 15000 kPa | 890.63
283.48 K, 20000 kPa | 893.87
283.48 K, 25000 kPa | 896.91
293.44 K, 1000 kPa | 872.61
293.44 K, 3000 kPa | 874.12
293.45 K, 5000 kPa | 875.6
293.45 K, 10000 kPa | 879.24
293.45 K, 15000 kPa | 882.73
293.45 K, 20000 kPa | 886.08
293.45 K, 25000 kPa | 889.32
293.45 K, 30000 kPa | 892.46
293.45 K, 40000 kPa | 898.43
293.45 K, 60000 kPa | 909.42
293.45 K, 70000 kPa | 914.46
293.45 K, 80000 kPa | 919.33
293.45 K, 100000 kPa | 928.38
293.46 K, 100 kPa | 871.89
293.46 K, 50000 kPa | 904.07
293.46 K, 90000 kPa | 923.91
303.38 K, 1000 kPa | 863.7
303.39 K, 3000 kPa | 865.32
303.39 K, 15000 kPa | 874.36
303.39 K, 40000 kPa | 890.82
303.4 K, 5000 kPa | 866.89
303.4 K, 10000 kPa | 870.7
303.4 K, 20000 kPa | 877.88
303.4 K, 25000 kPa | 881.31
303.4 K, 30000 kPa | 884.55
303.4 K, 50000 kPa | 896.67
303.4 K, 60000 kPa | 902.22
303.4 K, 70000 kPa | 907.5
303.4 K, 80000 kPa | 912.5
303.4 K, 90000 kPa | 917.28
303.41 K, 100 kPa | 862.94
303.41 K, 100000 kPa | 921.87
313.34 K, 100 kPa | 854.53
313.34 K, 1000 kPa | 855.28
313.34 K, 3000 kPa | 857.04
313.34 K, 5000 kPa | 858.73
313.34 K, 10000 kPa | 862.77
313.34 K, 15000 kPa | 866.66
313.34 K, 20000 kPa | 870.34
313.34 K, 25000 kPa | 873.92
313.34 K, 30000 kPa | 877.34
313.34 K, 40000 kPa | 883.88
313.34 K, 50000 kPa | 889.98
313.34 K, 60000 kPa | 895.7
313.34 K, 70000 kPa | 901.14
313.34 K, 80000 kPa | 906.27
313.34 K, 100000 kPa | 915.93
313.35 K, 90000 kPa | 911.19
323.15 K, 100 kPa | 845.74
323.15 K, 50000 kPa | 882.8
323.15 K, 60000 kPa | 888.76
323.15 K, 70000 kPa | 894.49
323.15 K, 80000 kPa | 899.83
323.15 K, 90000 kPa | 904.91
323.15 K, 100000 kPa | 909.78
323.16 K, 1000 kPa | 846.56
323.16 K, 3000 kPa | 848.36
323.16 K, 5000 kPa | 850.14
323.16 K, 10000 kPa | 854.42
323.16 K, 25000 kPa | 866.13
323.16 K, 30000 kPa | 869.71
323.16 K, 40000 kPa | 876.47
323.17 K, 15000 kPa | 858.49
323.17 K, 20000 kPa | 862.39
332.99 K, 100 kPa | 836.98
333 K, 1000 kPa | 837.85
333 K, 3000 kPa | 839.78
333 K, 5000 kPa | 841.66
333 K, 10000 kPa | 846.16
333 K, 15000 kPa | 850.47
333 K, 20000 kPa | 854.55
333 K, 25000 kPa | 858.45
333.01 K, 30000 kPa | 862.21
333.01 K, 40000 kPa | 869.27
333.01 K, 50000 kPa | 875.85
333.01 K, 60000 kPa | 882.02
333.01 K, 70000 kPa | 888.07
333.01 K, 80000 kPa | 893.58
333.01 K, 90000 kPa | 898.82
333.01 K, 100000 kPa | 903.81
342.95 K, 100 kPa | 828.32
342.96 K, 1000 kPa | 829.27
342.96 K, 3000 kPa | 831.31
342.96 K, 5000 kPa | 833.3
342.96 K, 10000 kPa | 838.06
342.96 K, 15000 kPa | 842.59
342.96 K, 20000 kPa | 846.9
342.97 K, 25000 kPa | 851
342.97 K, 30000 kPa | 854.91
342.97 K, 40000 kPa | 862.31
342.97 K, 50000 kPa | 869.15
342.97 K, 60000 kPa | 875.57
342.97 K, 70000 kPa | 881.64
342.97 K, 80000 kPa | 887.28
342.97 K, 90000 kPa | 892.73
342.97 K, 100000 kPa | 897.85
352.78 K, 100 kPa | 819.64
352.79 K, 1000 kPa | 820.65
352.79 K, 3000 kPa | 822.83
352.79 K, 5000 kPa | 824.93
352.79 K, 10000 kPa | 830
352.79 K, 15000 kPa | 834.75
352.79 K, 20000 kPa | 839.27
352.79 K, 25000 kPa | 843.56
352.79 K, 30000 kPa | 847.66
352.79 K, 40000 kPa | 855.34
352.79 K, 50000 kPa | 862.46
352.79 K, 60000 kPa | 869.08
352.79 K, 70000 kPa | 875.42
352.79 K, 90000 kPa | 886.84
352.79 K, 100000 kPa | 892.14
352.8 K, 80000 kPa | 881.29
362.64 K, 100 kPa | 810.91
362.64 K, 1000 kPa | 811.97
362.64 K, 3000 kPa | 814.28
362.64 K, 5000 kPa | 816.51
362.64 K, 10000 kPa | 821.85
362.64 K, 15000 kPa | 826.87
362.64 K, 20000 kPa | 831.61
362.64 K, 25000 kPa | 836.09
362.64 K, 30000 kPa | 840.38
362.64 K, 50000 kPa | 855.78
362.64 K, 60000 kPa | 862.65
362.64 K, 70000 kPa | 869.14
362.64 K, 80000 kPa | 875.25
362.64 K, 90000 kPa | 880.97
362.64 K, 100000 kPa | 886.45
362.65 K, 40000 kPa | 848.4
